The conditions of data set [1]: cited from earlier work.
Data set [2] in a line: Adapalene oleyl ester dissolved in squalane (premix properties). It is filed as physicochemical. Particulars: for physical form of the premix in squalane: 20% by weight in squalane. From the text:
The adapalene ester can be formulated in a premix composition with a non-polar lipophilic carrier at even higher concentrations of the adapalene ester. Typically, the concentration of the adapalene ester in the premix composition will be at least about 10% by weight, and the weight ratio of adapalene ester to lipophilic carrier is from about 1:9 to about 3:7. The premix composition may in the form of a homogeneous liquid solution or single phase amorphous solid.
Adapalene oleyl ester was dissolved in squalane at a concentration of 20% by weight. […] Rather, the entire premix mass formed a soft amorphous solid paste. The concentrated 20% adapalene oleyl ester in squalane remains a single homogenous soft solid paste with a melting temperature range of 30-35° C. This is a suitable temperature range for use in the manufacturing of finished cosmetics, which are usually manufactured at 30-80° C. This 20% composition can itself melt when in contact with the skin (33° C.). A combination of adapalene oleyl ester with squalane at high concentration, minimum 20%, provides an advantageous skin beauty treatment that can target acne prone skin with 20% or more adapalene ester, which is not possible with highly insoluble pure adapalene.

Data set [3] is described as follows: Dissolution of lauryl adapalene in MCT oil (caprylic/capric triglyceride) and persistence of the solution. It is filed as physicochemical. On the procedure: Approximately 5 grams of lauryl adapalene solids were dissolved in 95 grams of liquid MCT oil (caprylic/capric triglyceride), by heating the mixture to 60° C. for fifteen minutes.

Read-outs that look alike come from different tables or passages of the source.

For `COc1ccc(-c2ccc3cc(C(=O)O)ccc3c2)cc1C12CC3CC(CC(C3)C1)C2` [Adapalene, 6-(3-(1-adamantyl)-4-methoxyphenyl)-2-naphthoic acid], the solubility in ethanol result in data set [1] is recorded as “sparingly soluble”. Further, the “solubility in oil or water” value is reported as “not oil or water soluble” in data set [1] and “insoluble in oil or water” in data set [1] (listed as adapalene).
On to `CCCCCCCC/C=C\CCCCCCCCOC(=O)c1ccc2cc(-c3ccc(OC)c(C45CC6CC(CC(C6)C4)C5)c3)ccc2c1` [Adapalene oleyl ester, adapalene oleyl ester], for which the “physical form of the premix in squalane” value in data set [2] is reported as “formed a homogenous amorphous solid”; in data set [2] (listed as adapalene C18-1 ester), “forms a homogenous amorphous solid”. Further, the “concentration dissolved in squalane” value in data set [2] (squalane premix) is listed as 20 % by weight.
`CCCCCCCCCCCCOC(=O)c1ccc2cc(-c3ccc(OC)c(C45CC6CC(CC(C6)C4)C5)c3)ccc2c1` [lauryl adapalene]: the “time the solution remained in liquid form” value in data set [3] (5% wt/wt solution in MCT oil, room temperature) is “more than one week”. In addition, in data set [3] (5 g solids in 95 g MCT oil, heated to 60° C. for fifteen minutes), the “concentration of active agent dissolved in liquid MCT oil” value was 5 % wt/wt.
